US9976146B2, “Aptamer targeting MAGE-A3 peptide and uses thereof” (Academia Sinica, priority 2014, dated 2018)
pKd: −log10 of the molar value.

How the values were obtained:
MAGE-A3111-125 peptide [1] = biological target: T1, MAGE-A3111-125 peptide (Homo sapiens, UniProt P43357); test: Peptide-magnetic bead binding assay with elution and PCR amplification (FIG. 1); details: peptide on streptavidin-coupled magnetic beads
Source text: FIG. 1 is a photograph illustrating the PCR results of the binding affinity and specificity between Ap52 of Example 2 and specified peptides, in which peptide MAGE-A3111-125 (+), NY-ESO-1119-143 (N1), NY-ESO-1157-170 (N2), NY-ESO-187-111 (N3), or no peptide (−) were reacted with Ap52, followed by elution and PCR amplification; PB served as a control of oligonucleotide aptamer;
A total of ninety-four different sequences were obtained and further assayed individually for its binding affinity and specificity to MAGE-A3111-125. Plasmid DNA was first amplified by use of anchored PCR, as described above. The resulting ssDNA products were purified through 12% denaturing PAGE and incubated with the biotinylated peptide MAGE-A3111-125, which was pre-incubated with the streptavidin-coupled magnetic beads and thus formed a peptide-magnetic bead complex through the streptavidin-biotin interaction. The sequences that bound specifically to the peptide MAGE-A3111-125 were isolated by the magnet and subject to further purification, as the procedure described in library selection.
Thus, Ap52 is highly specific in terms of binding with MAGE-A3111-125 peptide.

MAGE-A3111-125 peptide [2] = biological target: T1, MAGE-A3111-125 peptide; test: Isothermal titration calorimetry (ITC) for dissociation constant (Kd) determination; format: binding
Protocol: Isothermal Titration Calorimetry (ITC) for Dissociation Constant (Kd) Determination
Thermodynamic profile of the interaction between DNA and peptide was measured with a MicroCal iTC200 (GE Healthcare Life Sciences) at 25° C. in washing buffer (0.45% glucose, 5 mM MgCl2, in Dulbecco's Phosphate-Buffered Saline). The unmodified MAGE-A3111-125 peptide (0.3 mM, 200 μl) was titrated with 18 successive injections of 2 μl aptamer (0.1 mM) at 150 s intervals. The data were analyzed using MicroCal Origin 7 and fit with a one-set-of sites binding model to obtain values of enthalpy change (AH) and association constant (Ka).
Isothermal titration calorimetry (ITC) is a technique used to measure the thermodynamic profile of the interactions between two molecules, and thus can be used to determine the respective binding affinities of Ap16 and Ap52 to MAGE-A3111-125 peptide. […] Therefore, both Ap52 and Ap16 are effective in targeting MAGE-A3111-125-peptide.

[3] = ITC at 25° C. in washing buffer, one-set-of sites binding model

Q: “Ap16-control: 16-nucleotide region (SEQ ID NO: 7) from another oligonucleotide selected from SELEX, used as a negative control (ATCATTCGGATGTGTG; listed as DNA, chemistry not fully specified)” was tested. Which “binding to MAGE-A3111-125 peptide” value (MAGE-A3111-125 peptide [1]) did it give?
A: failed to bind

Q: With “Ap16: oligonucleotide aptamer of 16 nucleotides AGCACTCAATATTCCC (SEQ ID NO: 1), central randomized region of Ap52 (listed as DNA, chemistry not given here)” as the substance, how does the pKd (MAGE-A3111-125 peptide [2]; [3]) read?
A: 7.02

Q: And the “ΔH (enthalpy change)” value (MAGE-A3111-125 peptide [2]; [3])?
A: -41 kcal/mol

Q: And the “Kd values, in words” value (MAGE-A3111-125 peptide [2]; general statement on binding to the MAGE-A3 peptide)?
A: nanomolar range
